Test results reported in patent US20200216439A1, “HETERO-1,5,6,7-TETRAHYDRO-4H-INDOL-4-ONES” (BAYER PHARMA AKTIENGESELLSCHAFT, priority 2015, published 2020).

Target: T1, catalytic domain of human Bub1 (amino acids 704-1085) (Homo sapiens, UniProt O43683)
T1 construct: catalytic domain of human Bub1 (amino acids 704-1085); His6 (N); made in house; host or cells: Hi5 insect cells
Experiment: Bub1 kinase assay (TR-FRET)
Format: biochemical
Conditions: TR-FRET; ATP 10 μM, peptide substrate 1 μM; 60 min at 22° C.; average or median if tested more than once; read-out: Inhibition of Bub1 kinase IC50
From the text: Bub1-inhibitory activities of compounds described in the present invention were quantified using a time-resolved fluorescence energy transfer (TR-FRET) kinase assay which measures phosphorylation of the synthetic peptide Biotin-Ahx-VLLPKKSFAEPG (C-terminus in amide form), purchased from e.g. Biosyntan (Berlin, Germany) by the (recombinant) catalytic domain of human Bub1 (amino acids 704-1085), expressed in Hi5 insect cells with an N-terminal His6-tag and purified by affinity—(Ni-NTA) and size exclusion chromatography.
In a typical assay 11 different concentrations of each compound (0.1 nM, 0.33 nM, 1.1 nM, 3.8 nM, 13 nM, 44 nM, 0.15 μM, 0.51 μM, 1.7 μM, 5.9 μM and 20 μM) were tested in duplicate within the same microtiter plate. To this end, 100-fold concentrated compound solutions (in DMSO) were previously prepared by serial dilution (1:3.4) of 2 mM stocks in a clear low volume 384-well source microtiter plate (Greiner Bio-One, Frickenhausen, Germany), from which 50 nl of compounds were transferred into a black low volume test microtiter plate from the same supplier. Subsequently, 2 μL of Bub1 (the final concentration of Bub1 was adjusted depending on the activity of the enzyme lot in order to be within the linear dynamic range of the assay: typically ˜200 ng/mL were used) in aqueous assay buffer [50 mM Tris/HCl pH 7.5, 10 mM magnesium chloride (MgCl2), 200 mM potassium chloride (KCl), 1.0 mM dithiothreitol (DTT), 0.1 mM sodium ortho-vanadate, 1% (v/v) glycerol, 0.01% (w/v) bovine serum albumine (BSA), 0.005% (v/v) Trition X-100 (Sigma), 1× Complete EDTA-free protease inhibitor mixture (Roche)] were added to the compounds in the test plate and the mixture was incubated for 15 min at 22° C. to allow pre-equilibration of the putative enzyme-inhibitor complexes before the start of the kinase reaction, which was initiated by the addition of 3 μL 1.67-fold concentrated solution (in assay buffer) of adenosine-tri-phosphate (ATP, 10 μM final concentration) and peptide substrate (1 μM final concentration). The resulting mixture (5 μL final volume) was incubated at 22° C. during 60 min., and the reaction was stopped by the addition of 5 μL of an aqueous EDTA-solution (50 mM EDTA, in 100 mM HEPES pH 7.5 and 0.2% (w/v) bovine serum albumin) which also contained the TR-FRET detection reagents (0.2 μM streptavidin-XL665 [Cisbio Bioassays, Codolet, France] and 1 nM anti-phospho-Serine antibody [Merck Millipore, cat. #35-002] and 0.4 nM LANCE EU-W1024 labeled anti-mouse IgG antibody [Perkin-Elmer, product no. AD0077, alternatively a Terbium-cryptate-labeled anti-mouse IgG antibody from Cisbio Bioassays can be used]). The stopped reaction mixture was further incubated 1 h at 22° C. in order to allow the formation of complexes between peptides and detection reagents. Subsequently, the amount of product was evaluated by measurement of the resonance energy transfer from the Eu-chelate-antibody complex recognizing the Phosphoserine residue to the streptavidin-XL665 bound to the biotin moiety of the peptide. To this end, the fluorescence emissions at 620 nm and 665 nm after excitation at 330-350 nm were measured in a TR-FRET plate reader, e.g. a Rubystar or Pherastar (both from BMG Labtechnologies, Offenburg, Germany) or a Viewlux (Perkin-Elmer) and the ratio of the emissions (665 nm/[…]) was taken as indicator for the amount of phosphorylated substrate. The data were normalised using two sets of control wells for high—(=enzyme reaction without inhibitor=0%=Minimum inhibition) and low—(=all assay components without enzyme=100%=Maximum inhibition) Bub1 activity. IC50 values were calculated by fitting the normalized inhibition data to a 4-parameter logistic equation (Minimum, Maximum, IC50, Hill; Y=Max+(Min−Max)/(1+(X/IC50)Hill)).

T1 sequence (O43683 704-1085): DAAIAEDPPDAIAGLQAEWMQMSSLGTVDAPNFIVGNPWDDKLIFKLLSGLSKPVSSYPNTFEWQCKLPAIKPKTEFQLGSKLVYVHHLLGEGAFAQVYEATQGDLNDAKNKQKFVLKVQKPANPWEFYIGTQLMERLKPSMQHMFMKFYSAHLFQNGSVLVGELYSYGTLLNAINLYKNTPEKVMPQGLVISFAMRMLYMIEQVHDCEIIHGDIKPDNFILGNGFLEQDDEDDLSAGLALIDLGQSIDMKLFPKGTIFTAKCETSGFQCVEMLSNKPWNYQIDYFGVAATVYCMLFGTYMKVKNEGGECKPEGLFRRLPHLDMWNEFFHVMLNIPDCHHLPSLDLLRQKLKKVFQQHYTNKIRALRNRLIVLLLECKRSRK

SMILES	IC50 [nM]
CC(C)(C)SC(=O)N1CC(=O)c2c([nH]c(-c3ccnc(NC(=O)[C@@H]4C[C@@H]4F)c3)c2Nc2ccccc2)C1 [Example 308, S-tert-Butyl 3-anilino-2-[2-({[(1S,2S)-2-fluorocyclopropyl]carbonyl}amino)pyridin-4-yl]-4-oxo-1,4,5,7-tetrahydro-6H-pyrrolo[2,3-c]pyridine-6-carbothioate]	31
O=C1CNCc2[nH]c(-c3ccncc3OCC(F)(F)F)c(Nc3ccccc3)c21 [Example 225, 3-Anilino-2-[3-(2,2,2-trifluoroethoxy)pyridin-4-yl]-1,5,6,7-tetrahydro-4H-pyrrolo[2,3-c]pyridin-4-one]	1020
O=C1CNCc2[nH]c(-c3ccnc(NC(=O)[C@@H]4C[C@@H]4F)c3)c(Nc3ccccc3)c21 [Example 197, (1S,2S)—N-[4-(3-anilino-4-oxo-4,5,6,7-tetrahydro-1H-pyrrolo[2,3-c]pyridin-2-yl)pyridin-2-yl]-2-fluorocyclopropanecarboxamide]	40
COc1cc(C(=O)Nc2cc(-c3[nH]c4c(c3Nc3ccccc3)C(=O)CN(C(=O)OC(C)(C)C)C4)ccn2)ccc1F [Example 253, tert-butyl 2-2-[(4-fluoro-3-methoxybenzoyl)amino]pyridin-4-yl-4-oxo-3-(phenylamino)-1,4,5,7-tetrahydro-6H-pyrrolo[2,3-c]pyridine-6-carboxylate]	42
CC(C)(O)CC(=O)N1CC(=O)c2c([nH]c(-c3ccnc(NC(=O)[C@@H]4C[C@@H]4F)c3)c2Nc2ccccc2)C1 [Example 201]	6
COc1ccc(C(=O)Nc2cc(-c3c(Nc4ccccc4)c4c(n3C)CN(S(=O)(=O)N(C)C)CC4=O)ccn2)cc1F [Example 290, N-4-[6-(Dimethylsulfamoyl)-1-methyl-4-oxo-3-(phenylamino)-4,5,6,7-tetrahydro-1H-pyrrolo[2,3-c]pyridin-2-yl]pyridin-2-yl-3-fluoro-4-methoxybenzamide]	73
CC(=O)Nc1cc(-c2[nH]c3c(c2Nc2ccccc2)C(=O)COC3)ccn1 [Example 34, N-{4-[4-Oxo-3-(phenylamino)-1,4,5,7-tetrahydropyrano[3,4-b]pyrrol-2-yl]pyridin-2-yl}acetamide]	60
O=C1CN(S(=O)(=O)C2CCOCC2)Cc2[nH]c(-c3ccncc3)c(Nc3ccccc3)c21 [Example 70, 3-(phenylamino)-2-(pyridin-4-yl)-6-(tetrahydro-2H-pyran-4-ylsulfonyl)-1,5,6,7-tetrahydro-4H-pyrrolo[2,3-c]pyridin-4-one]	7
CC(C)C(=O)N1CC(=O)c2c([nH]c(-c3ccncc3)c2Nc2ccccc2)C1 [Example 17]	6
O=C1COCc2[nH]c(-c3ccncc3Cl)c(Nc3ccccc3)c21 [Example 42, 2-(3-Chloropyridin-4-yl)-3-(phenylamino)-1,7-dihydropyrano[3,4-b]pyrrol-4(5H)-one]	77
COc1ccc(C(=O)Nc2cc(-c3[nH]c4c(c3Nc3ccccc3)C(=O)CN(C(=O)OC(C)(C)C)C4)ccn2)c(C)c1 [Example 266, tert-Butyl 2-2-[(4-methoxy-2-methylbenzoyl)amino]pyridin-4-yl-4-oxo-3-(phenylamino)-1,4,5,7-tetrahydro-6H-pyrrolo[2,3-c]pyridine-6-carboxylate]	72
O=C1CNCc2[nH]c(-c3ccncc3Cl)c(Nc3ccccc3)c21 [Example 2, 2-(3-Chloropyridin-4-yl)-3-(phenylamino)-1,5,6,7-tetrahydro-4H-pyrrolo[2,3-c]pyridin-4-one]	236
CC(C)(C)OC(=O)N1CC(=O)c2c([nH]c(-c3ccnc(NC(=O)[C@@H]4C[C@H]4F)c3)c2Nc2ccccc2)C1 (relative stereo) [Example 129, tert-Butyl 3-anilino-2-[2-({[(rel-1S,2R)-2-fluorocyclopropyl]carbonyl}amino)pyridin-4-yl]-4-oxo-1,4,5,7-tetrahydro-6H-pyrrolo[2,3-c]pyridine-6-carboxylate]	7
COC(=O)N1CC(=O)c2c([nH]c(-c3ccnc(NC(=O)[C@@H]4C[C@@H]4F)c3)c2Nc2ccccc2)C1 (relative stereo) [Example 139, Methyl 3-anilino-2-[2-({[rel-(1S,2S)-2-fluorocyclopropyl]carbonyl}amino)pyridin-4-yl]-4-oxo-1,4,5,7-tetrahydro-6H-pyrrolo[2,3-c]pyridine-6-carboxylate]	7
COc1cnccc1-c1[nH]c2c(c1Nc1ccccc1)C(=O)CN(S(C)(=O)=O)C2 [Example 107, 2-(3-Methoxypyridin-4-yl)-6(methylsulfonyl)-3-(phenylamino)-1,5,6,7-tetrahydro-4H-pyrrolo[2,3-c]pyridin-4-one]	6
COc1cc(C(=O)Nc2cc(-c3c(Nc4ccccc4)c4c(n3C)CN(C(=O)OC(C)(C)C)CC4=O)ccn2)ccc1F [Example 256, tert-Butyl 2-2-[(4-fluoro-3-methoxybenzoyl)amino]pyridin-4-yl-1-methyl-4-oxo-3-(phenylamino)-1,4,5,7-tetrahydro-6H-pyrrolo[2,3-c]pyridine-6-carboxylate]	936
CC(=O)N1CC(=O)c2c([nH]c(-c3ccncc3OCC(F)(F)F)c2Nc2ccccc2)C1 [Example 229, 6-Acetyl-3-(phenylamino)-2-[3-(2,2,2-trifluoroethoxy)pyridin-4-yl]-1,5,6,7-tetrahydro-4H-pyrrolo[2,3-c]pyridin-4-one]	163
O=C1CN(C(=O)CCO)Cc2[nH]c(-c3ccnc(NC(=O)[C@@H]4C[C@@H]4F)c3)c(Nc3ccccc3)c21 [Example 202, (1S,2S)-2-Fluoro-N-4-[6-(3-hydroxypropanoyl)-4-oxo-3-(phenylamino)-4,5,6,7-tetrahydro-1H-pyrrolo[2,3-c]pyridin-2-yl]pyridin-2-ylcyclopropanecarboxamide]	8
COC(=O)N1CC(=O)c2c([nH]c(-c3ccnc(NC(C)=O)c3)c2Nc2ccc(F)cc2)C1 [Example 314, Methyl 2-[2-(acetylamino)pyridin-4-yl]-3-[(4-fluorophenyl)amino]-4-oxo-1,4,5,7-tetrahydro-6H-pyrrolo[2,3-c]pyridine-6-carboxylate]	8
CC(C)(C)OC(=O)N1CC(=O)c2c([nH]c(-c3ccnc(NC(=O)c4cnn[nH]4)c3)c2Nc2ccccc2)C1 [Example 274, tert-Butyl 4-oxo-3-(phenylamino)-2-2-[(1H-1,2,3-triazol-5-ylcarbonyl)amino]pyridin-4-yl-1,4,5,7-tetrahydro-6H-pyrrolo[2,3-c]pyridine-6-carboxylate]	10
COc1ccc(C(=O)Nc2cc(-c3c(Nc4ccccc4)c4c(n3C)CNCC4=O)ccn2)cc1F [Example 287, 3-Fluoro-4-methoxy-N-4-[1-methyl-4-oxo-3-(phenylamino)-4,5,6,7-tetrahydro-1H-pyrrolo[2,3-c]pyridin-2-yl]pyridin-2-ylbenzamide]	2060
CCNC(=O)N1CC(=O)c2c([nH]c(-c3ccnc(NC(C)=O)c3)c2Nc2ccccc2)C1 [Example 28]	13
CC(=O)Nc1cc(-c2[nH]c3c(c2Nc2ccccc2)C(=O)CN(C(=O)c2cccnc2)C3)ccn1 [Example 115, N-{4-[4-Oxo-3-(phenylamino)-6-(pyridin-3-ylcarbonyl)-4,5,6,7-tetrahydro-1H-pyrrolo[2,3-c]pyridin-2-yl]pyridin-2-yl}acetamide]	45
